This is an account of results in US20250145592A1 (NICO Therapeutics, Inc., priority 2022, published 2025).

The test has as its system IL-1β secretion in THP-1 cells (NLRP3). Briefly: IL-1β secretion assay in PMA-differentiated THP-1 cells stimulated with LPS and nigericin (ELISA readout). Type of test: cell-based. The settings on record: IL-1β ELISA. On the procedure:
Compounds as provided herein were tested in the following assay. Cell culture medium employed contained RPMI 1640 medium (89%), FBS (10%), Pen/Strep (1%), and 2-mercaptoethanol (0.05 mM). Freezing medium was made up of 90% FBS and 10% DMSO. THP-1 cells were removed from the liquid nitrogen and placed into a 37° C. water bath to thaw, until signs of ice dissipated. The cells were then added to 9 mL of warm cell culture medium and centrifuged for 5 minutes at 1000 rpm. The supernatant was discarded, and the cells were resuspended in new cell culture medium. THP-1 cells were then split and cultured in the cell culture medium, being passaged every 2-3 days with the cell density will be maintained between 5×10^5 and 1.5×10^6 viable cells/mL.
To freeze, cells were resuspended with fresh freezing medium, adjusting the cell density to 5×10^6 cells/mL. The cell suspension was partitioned into 1 mL aliquots per vial, and the vials were transferred to a −80° C. freezer. After one day at −80° C., the cell vials were transferred to liquid nitrogen freezer for storage.
PMA was dissolved in DMSO to make a stock solution at 5 mg/ml and stored in 10 μl aliquots at −20° C. for single use. PMA is added to normal growth medium. LPS was diluted with 1 mL of water solution to provide a 1 mg/mL stock solution and stored in 15 μl aliquots at −20° C. for single use. Nigericin is diluted in ice cold 100% ethanol to 5 mg/ml (6.7 mM) and stored in 75 μL aliquots at −20° C. for single use. Serum-free media contains RPMI 1640 medium (99%), Pen/Strep (1%), and 2-mercaptoethanol (0.05 mM). The two control conditions used to qualify and normalize test compound dose-response curves were as follows: High Control=25 ng/mL LPS, […], 0.5% DMSO, Low Control=25 ng/mL, LPS, 0.5% DMSO.
THP-1 cells were diluted to provide a suspension at a concentration of 1.0×10^6 cells/mL with the total volume of suspension required to enable the desired number of assay plates. The growth media was supplemented with PMA (5 ng/mL final concentration) and the cells were incubated at 37° C. under a humidified atmosphere of 5% CO2 for 40 h.
All media was carefully aspirated from each culture flask. The cells were washed carefully with 1×DPBS. The cells were then briefly digested with trypsin LE for 5 minutes at 23° C. and immediately resuspended in cell growth media. After resuspension, the cells were centrifuged at 1000 rpm for 3 minutes and the supernatant was discarded. The cells were resuspended in DPBS and once again centrifuged at 1000 rpm for 5 minutes. The supernatant was discarded and the cell pellet was resuspended in serum-free media supplemented with LPS (25 ng/mL final concentration) to enable the distribution of 30K THP-1 cells within 45 μL of media into each well of 384-well PDL-coated plates. The 384-well plates were then incubated at 37° C. under a humidified atmosphere of 5% CO2 for 2 h. Following this period, test compounds were dispensed by Tecan across the desired concentration range with all wells normalized to a final 0.5% DMSO concentration. The plates were then then incubated at 37° C. under a humidified atmosphere of 5% CO2 for 1 h. Following this period, 5 μL of the 5 mg/mL nigericin stock solution was added to each of the appropriate wells and plates were centrifuged at 1000 rpm for 30 seconds. The plates were the immediately reintroduced to the incubator at 37° C. under a humidified atmosphere of 5% CO2 for 2 h. After this time, 35 μL/well of supernatant was collected and transferred into v-bottom plate and centrifuged at 1000 rpm for 1 minute. These supernatant aliquots were analyzed using an IL-Iβ detection kit as described below. If needed, the test samples could be snap frozen and stored at −80° C. until analyzed.
To prepare each ELISA plate, capture antibody (mAb Mt175) was diluted with PBS to a final concentration of […] and then 20 µL of this solution was added to each well of the ELISA plate.
Each plate was allowed to incubate overnight at 4° C. […]

Where [1] appears, read: Homo sapiens, THP-1, Table 3, LPS 25 ng/mL + nigericin, read-out: Activity (IC50 class).
Where [2] appears, read: Table 4, LPS 25 ng/mL + nigericin, read-out: Activity (IC50).
The mark [3] stands for this setting: Table 3, LPS 25 ng/mL + nigericin, read-out: Activity (IC50 class).

Molecules are shown by their SMILES. Read-outs that look alike come from different tables or passages of the source.

One may read the IC50 as the concentration that gives 50% inhibition. Consider `CC[C@H]1C[C@@H]1Oc1nn(CC(=O)Nc2ncc(F)cn2)c(=O)c2ccc(Br)cc12` (relative stereo) [Example 51, 2-[6-bromo-4-[trans-2-ethylcyclopropyl]oxy-1-oxophthalazin-2-yl]-N-(5-fluoropyrimidin-2-yl)acetamide], for which the IC50 under setting [1] was below 1000 nM and the IC50 (Homo sapiens, THP-1, Table 4, LPS 25 ng/mL + nigericin, read-out: Activity (IC50)) turned out to be 790 nM.
For the compound `C[C@@H]1CC1Oc1nn(CC(=O)Nc2ncc(F)cn2)c(=O)c2ccc(Br)cc12` (single isomer, unassigned) [Example 2, 2-[6-bromo-4-[2-trans-methylcyclopropyl]oxy-1-oxophthalazin-2-yl]-N-(5-fluoropyrimidin-2-yl)acetamide], the IC50 under setting [1] is below 1000 nM and the IC50 under setting [2] worked out at 202 nM.
With `C[C@@H]1CC1Oc1nn(CC(=O)Nc2ncc(F)cn2)c(=O)c2ccc(Br)cc12` (single isomer, unassigned) [Example 3, 2-[6-bromo-4-[2-trans-methylcyclopropyl]oxy-1-oxophthalazin-2-yl]-N-(5-fluoropyrimidin-2-yl)acetamide], the IC50 by setting is: under setting [3], below 1000 nM; under setting [2], 35 nM.
Take `O=C(Cn1nc(OC2CC3(C2)CC3(F)F)c2cc(Br)ccc2c1=O)Nc1ncc(F)cn1` (single isomer, unassigned) [Example 5, 2-[6-bromo-4-(2,2-difluorospiro[2.3]hexan-5-yl)oxy-1-oxophthalazin-2-yl]-N-(5-fluoropyrimidin-2-yl)acetamide]: the IC50 reads like this: under setting [1], below 1000 nM; under setting [2], 21 nM.
As for `O=C(Cn1nc(OC2CC3(C2)CC3(F)F)c2cc(Br)ccc2c1=O)Nc1ncc(F)cn1` (single isomer, unassigned) [Example 6, 2-[6-bromo-4-(2,2-difluorospiro[2.3]hexan-5-yl)oxy-1-oxophthalazin-2-yl]-N-(5-fluoropyrimidin-2-yl)acetamide], the IC50 was below 1000 nM under setting [3] and 308 nM under setting [2].
Consider `C[C@@H]1CC1Oc1nn(CC(=O)N[C@H]2C[C@@](C)(O)C2)c(=O)c2ccc(Br)cc12` (single isomer, unassigned) [Example 7, 2-[6-bromo-4-[trans-2-methylcyclopropyl]oxy-1-oxophthalazin-2-yl]-N-(cis-3-hydroxy-3-methylcyclobutyl)acetamide], for which the IC50 is below 1000 nM under setting [1] and 84 nM under setting [2].
With `C[C@@H]1CC1Oc1nn(CC(=O)N[C@H]2C[C@@](C)(O)C2)c(=O)c2ccc(Br)cc12` (single isomer, unassigned) [Example 8, 2-[6-bromo-4-[trans-2-methylcyclopropyl]oxy-1-oxophthalazin-2-yl]-N-(cis-3-hydroxy-3-methylcyclobutyl)acetamide], the IC50 under setting [3] is below 1000 nM and the IC50 under setting [2] was determined as 728 nM.
Regarding `Cc1cnc(NC(=O)Cn2nc(OC3C[C@H]3C)c3cc(Br)ccc3c2=O)nc1` (single isomer, unassigned) [Example 9, 2-[6-bromo-4-[trans-2-methylcyclopropyl]oxy-1-oxophthalazin-2-yl]-N-(5-methylpyrimidin-2-yl)acetamide], the half-inhibitory concentration (IC50) under setting [1] is below 1000 nM and the 50% inhibitory concentration (IC50) under setting [2] was 554 nM.
For `Cc1cnc(NC(=O)Cn2nc(OC3C[C@H]3C)c3cc(Br)ccc3c2=O)nc1` (single isomer, unassigned) [Example 10, 2-[6-bromo-4-[trans-2-methylcyclopropyl]oxy-1-oxophthalazin-2-yl]-N-(5-methylpyrimidin-2-yl)acetamide], the IC50 is, setting by setting: under setting [3], below 1000 nM; under setting [2], 141 nM.
For the compound `O=C(Cn1nc(OC2CC3(C2)CC3(F)F)c2cc(C3(F)CC3)ccc2c1=O)Nc1ncc(F)cn1` (single isomer, unassigned) [Example 13, 2-[4-(2,2-difluorospiro[2.3]hexan-5-yl)oxy-6-(1-fluorocyclopropyl)-1-oxophthalazin-2-yl]-N-(5-fluoropyrimidin-2-yl)acetamide], the IC50 is below 1000 nM under setting [1] and 34 nM under setting [2].
As to `O=C(Cn1nc(OC2CC3(C2)CC3(F)F)c2cc(C3(F)CC3)ccc2c1=O)Nc1ncc(F)cn1` (single isomer, unassigned) [Example 14, 2-[4-(2,2-difluorospiro[2.3]hexan-5-yl)oxy-6-(1-fluorocyclopropyl)-1-oxophthalazin-2-yl]-N-(5-fluoropyrimidin-2-yl)acetamide], the IC50 by setting is: under setting [3], below 1000 nM; under setting [2], 314 nM.
`O=C(Cn1nc(OC2CC2(F)F)c2cc(Br)ccc2c1=O)Nc1ncc(F)cn1` (single isomer, unassigned) [Example 17, 2-[6-bromo-4-[2,2-difluorocyclopropyl]oxy-1-oxophthalazin-2-yl]-N-(5-fluoropyrimidin-2-yl)acetamide]: the half-maximal inhibitory concentration (IC50) is below 1000 nM under setting [1] and 70 nM under setting [2].
As for `O=C(Cn1nc(OC2CC2(F)F)c2cc(Br)ccc2c1=O)Nc1ncc(F)cn1` (single isomer, unassigned) [Example 18, 2-[6-bromo-4-[2,2-difluorocyclopropyl]oxy-1-oxophthalazin-2-yl]-N-(5-fluoropyrimidin-2-yl)acetamide], the concentration for half-maximal inhibition (IC50) was 1000 to 10000 nM under setting [3] and 1510 nM under setting [2].
Consider `C[C@]1(O)C[C@@H](NC(=O)Cn2nc(OC3CC4(C3)CC4(F)F)c3cc(Br)ccc3c2=O)C1` (single isomer, unassigned) [Example 19, 2-[6-bromo-4-(2,2-difluorospiro[2.3]hexan-5-yl)oxy-1-oxophthalazin-2-yl]-N-(cis-3-hydroxy-3-methylcyclobutyl)acetamide], for which the IC50 under setting [1] was below 1000 nM and the IC50 under setting [2] amounted to 179 nM.
For `C[C@]1(O)C[C@@H](NC(=O)Cn2nc(OC3CC4(C3)CC4(F)F)c3cc(Br)ccc3c2=O)C1` (single isomer, unassigned) [Example 20, 2-[6-bromo-4-(2,2-difluorospiro[2.3]hexan-5-yl)oxy-1-oxophthalazin-2-yl]-N-(cis-3-hydroxy-3-methylcyclobutyl)acetamide], the IC50 was 1000 to 10000 nM under setting [3] and 3400 nM under setting [2].
In the case of `Cc1cnc(NC(=O)Cn2nc(OC3CC4(C3)CC4(F)F)c3cc(Br)ccc3c2=O)nc1` (single isomer, unassigned) [Example 21, 2-[6-bromo-4-(2,2-difluorospiro[2.3]hexan-5-yl)oxy-1-oxophthalazin-2-yl]-N-(5-methylpyrimidin-2-yl)acetamide], the IC50 reads like this: under setting [1], below 1000 nM; under setting [2], 31 nM.
As to `Cc1cnc(NC(=O)Cn2nc(OC3CC4(C3)CC4(F)F)c3cc(Br)ccc3c2=O)nc1` (single isomer, unassigned) [Example 22, 2-[6-bromo-4-(2,2-difluorospiro[2.3]hexan-5-yl)oxy-1-oxophthalazin-2-yl]-N-(5-methylpyrimidin-2-yl)acetamide], the IC50 under setting [3] was below 1000 nM and the IC50 under setting [2] turned out to be 815 nM.
As for `O=C(Cn1nc(OC2CC3(C2)CC3(F)F)c2cc(Br)ccc2c1=O)Nc1nc2ccccn2n1` (single isomer, unassigned) [Example 25, 2-[6-bromo-4-(2,2-difluorospiro[2.3]hexan-5-yl)oxy-1-oxophthalazin-2-yl]-N-([1,2,4]triazolo[1,5-a]pyridin-2-yl)acetamide], the IC50 reads like this: under setting [1], below 1000 nM; under setting [2], 33 nM.
